# Reference: US10028916B2, “Orally disintegrating dosage form for administration of avanafil, and associated methods of manufacture and use” (Vivus, Inc., priority 2014, dated 2018)
# Like-named read-outs stand apart in the source and are kept apart here.
# Assays:
# [1] = Aqueous solubility of avanafil by HPLC at a range of pH values; type: physicochemical; conditions: thermodynamic from solid
# Description: A high performance liquid chromatography (HPLC) procedure was used to evaluate the aqueous solubility of avanafil (obtained from Tanabe Seiyaku Co., LTD, purity, 97.0% to 103% with an observed purity of 98.89%; particle diameter, 10-20 microns with median observed particle diameter of 18.47 microns) at a range of pH values. The HPLC conditions were as follows: system, HP Model 1100; analytical column, Supelco Kromasil C8, 4.6 mm×250 mm, 5 μm particle size; assay injection volume, 20 μl; stock stability injection volume, 0.5 μl; needle wash volume, 91 μl; mobile phase flow rate, 1.00 ml/minute; column temperature, 30° C.; detection wavelength 246 nm; flow cell path length, 10 mm; range step 2.00 nm; threshold, 1.00 mAU; stop time, 30 minutes. Solutions 1, 2, 3, 6, 7, 8, 11, and 12 were buffered to pH values of 0.99, 2.00, 3.00, 6.00, 7.00, 8.00, 11.0, and 12.0, respectively, using a phosphate buffer, 0.1M KH2PO4. Solutions 4 and 5 were buffered to pH values of 4.00 and 5.00, respectively, using a sodium acetate buffer, 0.1M NaOAc, while solutions 9 and 10 were respectively buffered to pH values of 9.00 and 10.00 using a sodium carbonate buffer, 0.1M Na2CO3.
# [2] = cited from earlier work
# [3] = Aqueous solubility of avanafil by HPLC at a range of pH values; type: physicochemical; conditions: sodium carbonate buffer, thermodynamic from solid, Solution 10, 0.1N Na2CO3, pH 10.0
compound,measurement,setting,value
"COc1ccc(CNc2nc(N3CCC[C@H]3CO)ncc2C(=O)NCc2ncccn2)cc1Cl [avanafil, 4-[(3-chloro-4-methoxybenzyl)amino]-2-[2-(hydroxymethyl)-1-pyrrolidinyl]-N-(2-pyrimidinylmethyl)-5-pyrimidinecarboxamide]",solubility,"[1]; phosphate buffer, aqueous buffer, Solution 1, 0.1M KH2PO4, pH 0.999",> 199000 µg/mL
same,solubility,"[1]; phosphate buffer, aqueous buffer, Solution 2, 0.1M KH2PO4, pH 2.00",35000 µg/mL
same,solubility,"[1]; phosphate buffer, aqueous buffer, Solution 3, 0.1M KH2PO4, pH 3.00",1700 µg/mL
same,solubility,"[1]; phosphate buffer, aqueous buffer, Solution 6, 0.1M KH2PO4, pH 6.00",1.28 µg/mL
same,solubility,"[1]; phosphate buffer, aqueous buffer, Solution 7, 0.1M KH2PO4, pH 7.00",0.233 µg/mL
same,solubility,"[1]; phosphate buffer, aqueous buffer, Solution 8, 0.1M KH2PO4, pH 8.00",0.052 µg/mL
same,solubility,"[1]; phosphate buffer, aqueous buffer, Solution 11, 0.1M KH2PO4, pH 11.0",0.0568 µg/mL
same,solubility,"[1]; phosphate buffer, aqueous buffer, Solution 12, 0.1M KH2PO4, pH 12.0",< 0.05 µg/mL
same,solubility,"[1]; sodium acetate buffer, aqueous buffer, Solution 4, 0.1M NaOAc, pH 4.00",344 µg/mL
same,solubility,"[1]; sodium acetate buffer, aqueous buffer, Solution 5, 0.1M NaOAc, pH 5.00",19.5 µg/mL
same,solubility,"[1]; sodium carbonate buffer, aqueous buffer, Solution 9, 0.1M Na2CO3, pH 9.00",< 0.05 µg/mL
same,solubility,"[1]; water, ASTM Type II H2O, no buffer",0.139 µg/mL
same,mean reduction in Cmax,[2]; 100 mg with a high fat meal,24%
same,mean reduction in Cmax,[2]; 200 mg with a high fat meal,39%
same,route of clearance,"[2]; result in words, mainly CYP3A4, minor extent CYP2C isoform",cleared predominantly by hepatic metabolism
same,decrease in AUC,[2]; taken with a high fat meal,~3.8%
same,solubility,[3],< 0.05 µg/mL
